In the assay the test system is HeLa cells. The experiment in a line: Measurement of the cell cycle inhibition in HeLa cells. It counts as cell-based. To be noted: HeLa B cells, 20 h incubation with compound; FACS ratio G0/G1 to G2/M vs DMSO; concentration at which 50% of cells are in cell cycle arrest. An outline of the steps: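 HeLa B cells exposed 20 h to compounds (1×10^−9 to 1×10^−6 M final), then lysed in RNase/propidium iodide buffer and analysed by FACS. G0/G1 to G2/M ratio compared with DMSO controls; IC50 is concentration giving 50% of cells in cell cycle arrest.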
As to `Cc1nc(C)n(-c2nc(Cl)c(-c3c(F)cccc3F)c(N3CCC(C)CC3)n2)n1` [Example 118], the IC50 came to 32 nM.
`Fc1cc(F)c(-c2c(Cl)nc(-n3ccnn3)nc2NCC(F)(F)F)c(F)c1` [Example 212]: the IC50 turned out to be 53 nM.
The value for `CCOC(=O)c1cc(C)nn1-c1nc(Cl)c(-c2c(F)cc(F)cc2F)c(N[C@H](C)C(C)C)n1` [Example 88] was 44 nM.
Regarding `Cc1ccc(-c2c(Cl)nc(-n3cccn3)nc2N2CCCC(C)C2)c(F)c1` (centres unmarked) [Example 99], the IC50 turned out to be 39 nM.
In the case of `CCC(C)Nc1nc(-n2cccn2)nc(Cl)c1-c1c(F)cccc1Cl` (centres unmarked) [Example 106], the IC50 turned out to be 12 nM.
The value for `CCC(C)Nc1nc(-n2ccnn2)nc(Cl)c1-c1c(F)cc(F)cc1F` (centres unmarked) [Example 91] was 20 nM; that for `CC(Nc1nc(-n2ccc(N)n2)nc(Cl)c1-c1c(F)cc(F)cc1F)C(F)(F)F` (centres unmarked) [Example 57] was 5.8 nM.
In the case of `CCC(C)Nc1nc(-n2cc(I)cn2)nc(Cl)c1-c1c(C)cccc1F` (centres unmarked) [Example 120], the IC50 was 25 nM.
The value for `COc1ccc(-c2c(Cl)nc(C(N)=NO)nc2N[C@@H](C)C(C)C)c(Cl)c1` [Example 185] was 30 nM.
With `CC(C)Nc1nc(-n2ccc(N)n2)nc(Cl)c1-c1c(F)cc(F)cc1F` [Example 104], the IC50 was found to be 47 nM.
Regarding `Cc1ccc(-c2c(Cl)nc(-n3cccn3)nc2N2CCC(C)CC2)c(F)c1` [Example 87], the IC50 worked out at 39 nM.
As for `COc1cc(F)c(-c2c(Cl)nc(C(N)=O)nc2N[C@@H](C)C(C)C)c(F)c1` [Example 199], the IC50 was 33 nM.
Take `C[C@H](Nc1nc(-n2ccc(Br)n2)nc(Cl)c1-c1c(F)cc(F)cc1F)C(F)(F)F` [Example 38]: the IC50 is 24 nM.
In the case of `CC(C)[C@@H](C)Nc1nc(-n2ccnn2)nc(Cl)c1-c1c(F)cccc1Cl` [Example 50], the half-maximal inhibitory concentration (IC50) was found to be 9.1 nM.
Consider `C[C@H](Nc1nc(-n2cc(Cl)cn2)nc(Cl)c1-c1c(F)cc(F)cc1F)C(F)(F)F` [Example 35], for which the IC50 is 36 nM.
For the compound `CON=C(N)c1nc(Cl)c(-c2cc(F)ccc2Cl)c(N[C@@H](C)C(F)(F)F)n1` [Example 221], the 50% inhibitory concentration (IC50) was determined as 30 nM.
For the compound `Cc1cccc(-c2nc(Cl)c(-c3c(F)cc(F)cc3F)c(NC(C)C)n2)n1` [Example 11], the IC50 is 42 nM.
Take `C[C@H](Nc1nc(-n2ccc(-c3ccccc3)n2)nc(Cl)c1-c1c(F)cc(F)cc1F)C(F)(F)F` [Example 4]: the IC50 came to 41 nM.
Regarding `COc1cc(F)c(-c2c(Cl)nc(-c3ccccn3)nc2N[C@@H](C)C(C)C)c(F)c1` [Example 65], the IC50 amounted to 20 nM.
On to `CC(C)Nc1nc(-n2cccn2)nc(Cl)c1-c1c(F)cc(F)cc1F` [Example 101], for which the IC50 worked out at 33 nM.
Take `CON=C(N)c1nc(Cl)c(-c2c(F)cc(OC)cc2F)c(N2CCC(C)CC2)n1` [Example 197]: the IC50 is 42 nM.
The value for `Fc1cc(F)c(-c2c(Cl)nc(-n3ccnn3)nc2N2CC=CCC2)c(F)c1` [Example 45] was 17 nM; that for `COc1cc(F)c(-c2c(Cl)nc(C(N)=S)nc2N[C@@H](C)C(F)(F)F)c(F)c1` [Example 203] was 47 nM; that for `CCC(C)Nc1nc(-n2cc(C#N)cn2)nc(Cl)c1-c1c(F)cccc1Cl` (centres unmarked) [Example 163] was 30 nM.
With `Cc1nc(-n2cncn2)nc(N2CCC(C)CC2)c1-c1c(F)cc(F)cc1F` [Example 93], the IC50 amounted to 39 nM.
On to `C[C@H](Nc1nc(-n2cc(C#N)c(N)n2)nc(Cl)c1-c1c(F)cccc1Cl)C(F)(F)F` [Example 187], for which the IC50 was 39 nM.
`CCCNc1nc(-n2cccn2)nc(Cl)c1-c1ccc(C)cc1F` [Example 103]: the IC50 stood at 39 nM.
`CC(C)[C@H](C)Nc1nc(-n2ccnn2)nc(Cl)c1-c1c(F)cc(F)cc1F` [Example 139]: the IC50 was 26 nM.
Consider `CC1CCN(c2nc(-c3nccs3)nc(Cl)c2-c2c(F)cc(F)cc2F)CC1` [Example 39], for which the IC50 was determined as 26 nM.

(Values after US20080146593A1, “Substituted 5-Phenyl Pyrimidines I In Therapy” (Basf Aktiengesellschaft, priority 2005, published 2008).)
